Source: patent publication US20110098296A1, “Thiazole And Oxazole Kinase Inhibitors” (priority 2007, published 2011)
pIC50: −log10 of the molar value. Where a name gives a salt, the structure may show the parent alone.

How the values were obtained:
[1] = target: T1, EGFR (Homo sapiens, UniProt P00533); assay: EGFR substrate phosphorylation assay (HTRF); assay type: biochemical; details: Method (A): Enzyme Mix incubated with compound at 20° C. for 1 hr, reaction started by adding Substrate Mix
T1 construct: made in house; host or cells: baculovirus expression system
T1 sequence (P00533 25-1210): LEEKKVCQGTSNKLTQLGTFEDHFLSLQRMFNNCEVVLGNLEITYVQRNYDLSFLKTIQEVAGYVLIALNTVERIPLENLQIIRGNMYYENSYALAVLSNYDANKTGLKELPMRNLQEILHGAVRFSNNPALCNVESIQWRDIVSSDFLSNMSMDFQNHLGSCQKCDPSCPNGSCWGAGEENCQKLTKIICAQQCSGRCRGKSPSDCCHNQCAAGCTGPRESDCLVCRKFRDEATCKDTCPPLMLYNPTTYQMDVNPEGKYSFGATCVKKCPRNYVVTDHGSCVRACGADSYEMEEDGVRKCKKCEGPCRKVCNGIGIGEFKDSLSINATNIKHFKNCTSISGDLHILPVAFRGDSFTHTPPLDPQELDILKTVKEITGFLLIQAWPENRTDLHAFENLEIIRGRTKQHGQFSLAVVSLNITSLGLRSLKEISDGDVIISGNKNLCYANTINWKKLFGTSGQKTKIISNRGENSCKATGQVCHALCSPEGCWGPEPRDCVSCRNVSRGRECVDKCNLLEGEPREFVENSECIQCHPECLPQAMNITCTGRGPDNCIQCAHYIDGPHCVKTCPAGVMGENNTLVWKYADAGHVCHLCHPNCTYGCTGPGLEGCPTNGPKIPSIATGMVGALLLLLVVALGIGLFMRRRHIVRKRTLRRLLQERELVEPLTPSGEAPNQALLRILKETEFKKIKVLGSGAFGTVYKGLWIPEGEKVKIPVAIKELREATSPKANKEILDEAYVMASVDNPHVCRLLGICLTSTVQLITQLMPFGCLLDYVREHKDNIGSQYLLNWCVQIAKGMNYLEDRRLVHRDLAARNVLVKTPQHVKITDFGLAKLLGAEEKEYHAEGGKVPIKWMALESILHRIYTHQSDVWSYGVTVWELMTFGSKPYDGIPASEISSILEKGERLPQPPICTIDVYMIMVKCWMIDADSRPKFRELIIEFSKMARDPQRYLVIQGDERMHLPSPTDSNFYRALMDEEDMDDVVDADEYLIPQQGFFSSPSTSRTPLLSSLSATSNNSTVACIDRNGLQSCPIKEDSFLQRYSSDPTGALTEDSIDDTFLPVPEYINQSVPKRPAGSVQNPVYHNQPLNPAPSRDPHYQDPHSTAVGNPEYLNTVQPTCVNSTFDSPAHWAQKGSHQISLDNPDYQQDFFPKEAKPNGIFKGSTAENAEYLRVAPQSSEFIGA
Outline: (§1)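 Baculovirus-expressed kinase (0.8 nM EGFR or 10 nM ErbB2 in enzyme mix) with Peptide C 0.8 μM and ATP 20 μM (substrate-mix levels), MOPS pH 7.5, MnCl2; 90 min, 20 °C, HTRF anti-phosphotyrosine. Method A adds 1 h enzyme–compound preincubation; B none. pIC50, final compound 0.00027–47.6 μM.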

[2] = test system: HN5 tumor cells; assay: Method B: CellTiter-Glo Growth Inhibition Assay, HN5; assay type: cell-based; details: Homo sapiens, 72 h, 3 days
Method: (§2) Human breast tumor cells (BT474) were cultured in RPMI, (Invitrogen, 22400) containing 10% fetal bovine serum (FBS). Human head and neck tumor cells (HN5) were cultured in low glucose DMEM (Invitrogen, 12320) containing 10% FBS. Human colon tumor cells (Colo205) were cultured in DMEM (Invitrogen, 10564) containing 10% FBS. Human melanoma cancer cells (SK-MEL-28) were incubated in DMEM (Invitrogen). All cell lines were maintained at 37° C. in a humidified 5% CO2, 95% air incubator. Cells were harvested using trypsin/EDTA, counted using a haemocytometer, and plated in 30 μL of the appropriate media described above, at the following densities, in a half-area, black-walled, 96-well tissue culture plate (Corning 3882): BT474 3,000 cells/well, HN5 500 cells/well, Colo205 3,000 cells/well, and SK-MEL-28 500 cells/well). The next day, compounds were diluted in DMEM containing […] gentamicin, from 10 mM stock solutions in DMSO. 30 μL/well of these dilutions were added to the 30 μL/well of media currently on the cell plates. Medium containing 0.6% DMSO was added to control wells. The final concentration of DMSO in all wells was 0.3%. Cells were incubated at 37° C., 5% CO2 for 3 days. Cell biomass was estimated using CellTiter-Glo® reagent (Promega G7571). Briefly, plates were removed from the incubator and allowed to equilibrate to rt for 30 minutes. 25-60 μL of CellTiter-Glo® reagent were added to each well of the treated cells and plates were shaken on an orbital plate shaker for 2 mins. Plates were incubated without shaking for 30 more mins and read in a luminometer with an integration time of 0.5 seconds per well. Percent inhibition of cell growth was calculated relative to vehicle-treated control wells. Concentration of compound that inhibits 50% of vehicle control cell growth (IC50) was interpolated using nonlinear regression (Levenberg-Marquardt) and the equation, y=V max*(1−(x/(K+x)))+Y2, where “K” was equal to the IC50.

[3] = test system: Colo205 tumor cells; assay: Method B: CellTiter-Glo Growth Inhibition Assay, Colo205; assay type: cell-based; details: Homo sapiens, COLO 205, 72 h, 3 days
Method: as §2

[4] = target: T2, ErbB2 (Homo sapiens, UniProt P04626); assay: ErbB-2 substrate phosphorylation assay (HTRF); assay type: biochemical; details: Method (A): Enzyme Mix incubated with compound at 20° C. for 1 hr, reaction started by adding Substrate Mix
T2 construct: made in house; host or cells: baculovirus expression system
T2 sequence (P04626 23-1255): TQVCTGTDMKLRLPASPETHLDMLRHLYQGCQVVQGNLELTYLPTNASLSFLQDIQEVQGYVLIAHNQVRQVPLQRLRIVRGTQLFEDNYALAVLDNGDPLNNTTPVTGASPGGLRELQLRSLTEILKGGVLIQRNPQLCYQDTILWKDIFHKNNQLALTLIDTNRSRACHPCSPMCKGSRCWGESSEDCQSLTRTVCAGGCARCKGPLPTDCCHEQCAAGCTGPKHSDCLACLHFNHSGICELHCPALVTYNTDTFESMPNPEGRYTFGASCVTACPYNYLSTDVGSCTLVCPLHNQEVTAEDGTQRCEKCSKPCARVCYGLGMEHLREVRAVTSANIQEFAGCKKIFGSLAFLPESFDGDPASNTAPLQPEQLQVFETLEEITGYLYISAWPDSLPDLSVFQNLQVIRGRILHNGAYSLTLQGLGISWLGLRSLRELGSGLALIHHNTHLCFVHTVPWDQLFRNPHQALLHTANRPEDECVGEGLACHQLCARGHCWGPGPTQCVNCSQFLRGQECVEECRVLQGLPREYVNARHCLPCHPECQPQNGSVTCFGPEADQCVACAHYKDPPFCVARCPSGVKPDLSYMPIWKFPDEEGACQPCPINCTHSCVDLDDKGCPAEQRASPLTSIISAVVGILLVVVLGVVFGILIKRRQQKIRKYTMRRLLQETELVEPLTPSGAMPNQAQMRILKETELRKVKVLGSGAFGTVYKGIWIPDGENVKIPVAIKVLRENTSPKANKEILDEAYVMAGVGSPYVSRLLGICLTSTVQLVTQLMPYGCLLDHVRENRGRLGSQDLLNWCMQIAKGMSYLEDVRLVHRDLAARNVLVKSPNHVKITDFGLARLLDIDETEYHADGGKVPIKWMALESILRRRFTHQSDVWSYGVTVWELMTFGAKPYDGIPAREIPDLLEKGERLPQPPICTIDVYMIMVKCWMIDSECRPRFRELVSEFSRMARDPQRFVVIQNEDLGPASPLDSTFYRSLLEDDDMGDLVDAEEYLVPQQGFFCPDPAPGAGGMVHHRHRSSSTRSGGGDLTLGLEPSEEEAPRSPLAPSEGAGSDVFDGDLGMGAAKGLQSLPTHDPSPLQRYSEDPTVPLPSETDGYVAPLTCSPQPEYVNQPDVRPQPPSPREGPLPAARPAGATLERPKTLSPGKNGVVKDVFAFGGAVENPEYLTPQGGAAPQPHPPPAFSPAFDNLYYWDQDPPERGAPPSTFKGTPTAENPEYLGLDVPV
Outline: as §1

[5] = test system: BT474 tumor cells; assay: Method B: CellTiter-Glo Growth Inhibition Assay, BT474; assay type: cell-based; details: Homo sapiens, BT-474, 72 h, 3 days
Method: as §2

[6] = test system: HN5 tumor cells; assay: Method C: Cell Growth Inhibition Assay (CellTiter-Glo), HN5; assay type: cell-based; details: Homo sapiens, 72 h, 3 days, 4-parameter fit
Outline: (§3)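 Cells were seeded at 500 per well and dosed the next day with nine serial 1:3 compound dilutions (0.2% DMSO final), then grown 3 days at 37° C, 5% CO2. ATP was measured by CellTiter-Glo luminescence, and IC50 was interpolated by 4-parameter fit of percent inhibition versus DMSO controls.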

[7] = test system: A375P F11s tumor cells; assay: Method C: Cell Growth Inhibition Assay (CellTiter-Glo), A375P F11s; assay type: cell-based; details: Homo sapiens, 72 h, 3 days, 4-parameter fit
Outline: as §3

[8] = test system: BT474 tumor cells; assay: Method C: Cell Growth Inhibition Assay (CellTiter-Glo), BT474; assay type: cell-based; details: Homo sapiens, BT-474, 72 h, 3 days, 4-parameter fit
[9] = test system: SK-MEL-3 tumor cells; assay: Method C: Cell Growth Inhibition Assay (CellTiter-Glo), SK-MEL-3; assay type: cell-based; details: Homo sapiens, SK-MEL3, 72 h, 3 days, 4-parameter fit
Outline: (§4)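 Cells plated at 500 cells/well, dosed next day with 10-point 1:3 dilution series (0.2% final DMSO) and grown 3 days at 37 °C, 5% CO2. CellTiter-Glo luminescence (total ATP) served as cell-number surrogate; inhibition relative to DMSO controls, IC50 interpolated by 4-parameter fit.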

[10] = test system: Colo205 tumor cells; assay: Method C: Cell Growth Inhibition Assay (CellTiter-Glo), Colo205; assay type: cell-based; details: Homo sapiens, COLO 205, 72 h, 3 days, 4-parameter fit
Outline: as §4

[11] = test system: SK-MEL-28 tumor cells; assay: Method C: Cell Growth Inhibition Assay (CellTiter-Glo), SK-MEL-28; assay type: cell-based; details: Homo sapiens, SK-MEL-28, 72 h, 3 days, 4-parameter fit
Outline: as §3

[12] = test system: HT-29 tumor cells; assay: Method C: Cell Growth Inhibition Assay (CellTiter-Glo), HT-29; assay type: cell-based; details: Homo sapiens, HT-29, 72 h, 3 days, 4-parameter fit
Outline: as §3

Structure (SMILES) | pIC50 [1] | pIC50 [2] | pIC50 [3] | pIC50 [4] | pIC50 [5] | pIC50 [6] | pIC50 [7] | pIC50 [8] | pIC50 [9] | pIC50 [10] | pIC50 [11] | pIC50 [12]
Nc1nc(-c2cccc(NC(=O)c3c(F)cccc3F)c2)c(-c2ccnc(Nc3cccc(CCS(N)(=O)=O)c3)n2)s1 [Example 8] | > 7.00 | > 7.00 | 6.00 to 7.00 | > 7.00 | > 7.00 |  |  |  |  |  |  | 
Nc1nc(-c2cccc(NC(=O)c3c(F)cccc3F)c2)c(-c2ccnc(Nc3ccc4c(c3)OCC(=O)N4)n2)s1 [Example 9, hydrochloride] | > 7.00 | > 7.00 | < 6.00 | > 7.00 | > 7.00 |  |  |  |  |  |  | 
COc1ccc(Nc2nccc(-c3sc(N)nc3-c3cccc(NC(=O)c4c(F)cccc4F)c3)n2)cc1N(C)C [Example 19, N-{3-[2-Amino-5-(2-{[3-(dimethylamino)-4-(methyloxy)phenyl]amino}-4-pyrimidinyl)-1,3-thiazol-4-yl]phenyl}-2,6-difluorobenzamide] | > 7.00 | > 7.00 | 6.00 to 7.00 | > 7.00 | > 7.00 |  |  |  |  |  |  | 
O=C(Nc1cccc(-c2nc(NCCCN3CCOCC3)sc2-c2ccnc(Nc3cccc(F)c3)n2)c1)c1c(F)cccc1F [Example 30, 2,6-Difluoro-N-[3-(5-{2-[(3-fluorophenyl)amino]-4-pyrimidinyl}-2-{[3-(4-morpholinyl)propyl]amino}-1,3-thiazol-4-yl)phenyl]benzamide] | > 7.00 | 6.00 to 7.00 | < 6.00 | > 7.00 | 6.00 to 7.00 |  |  |  |  |  |  | 
CC(C)c1nc(-c2cccc(NC(=O)c3c(F)cccc3F)c2)c(-c2ccnc(Nc3ccc(OCCN4CCCC4)c(Cl)c3)n2)s1 [Example 121, N-{3-[5-{2-[(3-chloro-4-{[2-(1-pyrrolidinyl)-ethyl]oxy}phenyl)amino]-4-pyrimidinyl}-2-(1-methylethyl)-1,3-thiazol-4-yl]phenyl}-2,6-difluorobenzamide] | > 7.00 |  |  | > 7.00 |  | 6.00 to 7.00 | 6.00 to 7.00 | 6.00 to 7.00 | 6.00 to 7.00 | 6.00 to 7.00 | 6.00 to 7.00 | 6.00 to 7.00
CN1CCc2ccc(Nc3nccc(-c4sc(C5CCNCC5)nc4-c4cccc(NC(=O)c5c(F)cccc5F)c4)n3)cc2C1 [Example 124, 2,6-Difluoro-N-{3-[5-{2-[(2-methyl-1,2,3,4-tetrahydro-7-isoquinolinyl)amino]-4-pyrimidinyl}-2-(4-piperidinyl)-1,3-thiazol-4-yl]phenyl}benzamide] | > 7.00 |  |  | > 7.00 |  | 6.00 to 7.00 | < 6.00 | 6.00 to 7.00 | < 6.00 | 6.00 to 7.00 | < 6.00 | < 6.00
O=C(Nc1cccc(-c2nc(CO)sc2-c2ccnc(Nc3ccc(OCCN4CCCC4)c(F)c3)n2)c1)c1c(F)cccc1F [Example 126, 2,6-Difluoro-N-{3-[5-{2-[(3-fluoro-4-{[2-(1-pyrrolidinyl)ethyl]oxy}phenyl)amino]-4-pyrimidinyl}-2-(hydroxymethyl)-1,3-thiazol-4-yl]phenyl}benzamide] | > 7.00 |  |  | > 7.00 |  | > 7.00 | 6.00 to 7.00 | > 7.00 | 6.00 to 7.00 | 6.00 to 7.00 | 6.00 to 7.00 | 6.00 to 7.00
Cc1nc(-c2cccc(NC(=O)c3cc(F)ccc3F)c2)c(-c2ccnc(Nc3ccc(OCCN(C)C)c(F)c3)n2)s1 [Example 128, N-[3-(5-{2-[(4-{[2-(Dimethylamino)ethyl]oxy}-3-fluorophenyl)amino]-4-pyrimidinyl}-2-methyl-1,3-thiazol-4-yl)phenyl]-2,5-difluorobenzamide] | > 7.00 |  |  | > 7.00 |  | 6.00 to 7.00 | < 6.00 | 6.00 to 7.00 | < 6.00 | < 6.00 | < 6.00 | 6.00 to 7.00
Cc1nc(-c2cccc(NC(=O)c3ccc(F)cc3)c2)c(-c2ccnc(Nc3ccc(OCCN(C)C)c(Cl)c3)n2)s1 [Example 134, N-[3-(5-{2-[(3-Chloro-4-{[2-(dimethylamino)ethyl]oxy}phenyl)amino]-4-pyrimidinyl}-2-methyl-1,3-thiazol-4-yl)phenyl]-4-fluorobenzamide] | > 7.00 |  |  | > 7.00 |  | 6.00 to 7.00 | < 6.00 | 6.00 to 7.00 | < 6.00 | < 6.00 | < 6.00 | 6.00 to 7.00

Second part, the compound after the results:

pIC50 [1] | pIC50 [2] | pIC50 [3] | pIC50 [4] | pIC50 [5] | pIC50 [6] | pIC50 [7] | pIC50 [8] | pIC50 [9] | pIC50 [10] | pIC50 [11] | pIC50 [12] | Structure (SMILES)
> 7.00 | > 7.00 | < 6.00 | > 7.00 | > 7.00 |  |  |  |  |  |  |  | Nc1nc(-c2cccc(NC(=O)c3c(F)cccc3F)c2)c(-c2ccnc(Nc3cccc(F)c3)n2)s1 [Example 7]
> 7.00 | > 7.00 | < 6.00 | > 7.00 | > 7.00 |  |  |  |  |  |  |  | Nc1nc(-c2cccc(NC(=O)c3c(F)cccc3F)c2)c(-c2ccnc(Nc3ccc4c(c3)NC(=O)CO4)n2)s1 [Example 20, N-[3-(2-Amino-5-{2-[(3-oxo-3,4-dihydro-2H-1,4-benzoxaziN-6-yl)amino]-4-pyrimidinyl}-1,3-thiazol-4-yl)phenyl]-2,6-difluorobenzamide]
> 7.00 | 6.00 to 7.00 | < 6.00 | 6.00 to 7.00 | 6.00 to 7.00 |  |  |  |  |  |  |  | Nc1nc(-c2cccc(NC(=O)Cc3cccs3)c2)c(-c2ccnc(Nc3cccc(F)c3)n2)s1 [Example 64, N-[3-(2-Amino-5-{2-[(3-fluorophenyl)amino]-4-pyrimidinyl}-1,3-thiazol-4-yl)phenyl]-2-(2-thienyl)acetamide]
> 7.00 |  |  | > 7.00 |  | 6.00 to 7.00 | 6.00 to 7.00 | 6.00 to 7.00 | 6.00 to 7.00 | < 6.00 | < 6.00 | 6.00 to 7.00 | CCc1nc(-c2cccc(NC(=O)c3c(F)cccc3F)c2)c(-c2ccnc(Nc3ccc(OCCN4CCCC4)c(Cl)c3)n2)s1 [Example 113, N-[3-(5-{2-[(3-Chloro-4-{[2-(1-pwrolidinyl)ethyl]oxy}phenyl)amino]-4-pyrimidinyl}-2-ethyl-1,3-thiazol-4-yl)phenyl]-2,6-difluorobenzamide]
> 7.00 |  |  | > 7.00 |  | 6.00 to 7.00 | 6.00 to 7.00 | 6.00 to 7.00 | < 6.00 | 6.00 to 7.00 | 6.00 to 7.00 | 6.00 to 7.00 | CCc1nc(-c2cccc(NC(=O)c3c(F)cccc3F)c2)c(-c2ccnc(Nc3ccc(OCCN(C)C)c(Cl)c3)n2)s1 [Example 114, N-[3-(5-{2-[(3-Chloro-4-{[2-(dimethylamino)ethyl]oxy}phenyl)amino]-4-pyrimidinyl}-2-ethyl-1,3-thiazol-4-yl)phenyl]-2,6-difluorobenzamide]
> 7.00 |  |  | > 7.00 |  | < 6.00 | < 6.00 | < 6.00 | < 6.00 | < 6.00 | < 6.00 | < 6.00 | Cc1nc(-c2cccc(NC(=O)c3cccc(C(F)(F)F)c3)c2)c(-c2ccnc(Nc3ccc4c(c3)CN(C)CC4)n2)s1 [Example 131, N-[3-(2-Methyl-5-{2-[(2-methyl-1,2,3,4-tetrahydro-7-isoquinolinyl)amino]-4-pyrimidinyl}-1,3-thiazol-4-yl)phenyl]-3-(trifluoromethyl)benzamide]
